The target of one data set is T1, human mGlu1 (Homo sapiens, UniProt Q13255).
T1 construct: expressed in transfected cells; pcDNA5/TO)
In words: mGlu1 PAM calcium mobilization assay (human). As to conditions: for fold increase in mGlu1 PAM potency over 5: human mGlu1 EC50 ratio versus 5. It is filed as cell-based. From the text:
Molecular Pharmacology. Tetracycline-tested fetal bovine serum (FBS) was purchased from Atlanta Biologicals (Lawrenceville, GA), and all other tissue culture reagents and Fluo-4-acetoxymethylester (Fluo-4-AM) were purchased from Life Technologies (Carlsbad, CA).
Tetracycline hydrochloride (Sigma), L-glutamic acid (Tocris, Minneapolis, MN), and (S)-3,5-dihydroxyphenylglycine (DHPG) (Abcam, Cambridge, MA). EZ-Link Sulfo-NHS-SS-Biotin and NeutrAvidin agarose beads (Pierce Biotechnology, Rockford, IL).
Cell Culture and Mutagenesis. Tetracycline-inducible human mGlu 1 WT-T-RExTM-293 cells (Wu et al, Science 2014) were cultured at 37 °C in Dulbecco’s Modified Eagle Medium (DMEM) growth medium containing 10% Tet-tested FBS, 2 mM L-glutamine, 20 mM HEPES, 0.1 mM non-essential amino acids, 1 mM sodium pyruvate, antibiotic/antimycotic, 100 µg/mL hygromycin and 5 µg/mL blasticidin in the presence of 5% CO 2. […]
Calcium Mobilization Assay. To determine the potency of mGlu 1 PAMs in calcium assays, Ca flux was measured as previously described in ACS Chem. Bio. 2014, 9, 2334-2346. Briefly, the day before the assay, human mGlu1 WT-T-RExTM-293 cells were plated in black-walled, clear-bottomed, poly-D-lysine coated 96-well plates at 80,000 cells/100 µL assay medium (DMEM supplemented with 10% dialyzed FBS, 20 mM HEPES, and 1 mM sodium pyruvate) containing 50 ng/mL of tetracycline to induce mGlu1 expression. The next day, media was removed and the cells were incubated with 50 µL of 1.15 µM Fluo-4 AM dye solution prepared in assay buffer (buffer (Hank’s balanced salt solution, 20 mM HEPES, and 2.5 mM probenecid) for 45 min at 37 °C, the dye was removed and replaced with 45 µL of assay buffer. Then, calcium flux was measured using Flexstation II (Molecular Devices, Sunnyvale, CA). Compounds serially diluted […]
at half log concentrations in DMSO were further diluted in assay buffer. The compounds or DMSO vehicle were added to cells and incubated for 2.5 min and an EC20 concentration of glutamate was added and incubated for 1 min. An ECmax concentration of glutamate was also added to cells that were incubated with DMSO vehicle to accurately calculate the EC20 calcium response. Data were normalized by subtracting the basal florescent peak before EC20 agonist addition from the maximal peak elicited by EC20 agonist and PAMs. Using GraphPad Prism 5.0, the concentration response curves were generated and the potencies of the mGlu1 PAMs were determined. […]
For orientation: A change in cytosolic calcium serves as a functional read-out for many receptors and channels.

For another data set, the target named is T2, CYP450 2D6 (Homo sapiens, UniProt P10635).
T2 construct: 0.1 mg/mL human liver microsomes (HLM); from tissue; host or cells: human liver microsomes
T2 sequence (P10635 whole entry): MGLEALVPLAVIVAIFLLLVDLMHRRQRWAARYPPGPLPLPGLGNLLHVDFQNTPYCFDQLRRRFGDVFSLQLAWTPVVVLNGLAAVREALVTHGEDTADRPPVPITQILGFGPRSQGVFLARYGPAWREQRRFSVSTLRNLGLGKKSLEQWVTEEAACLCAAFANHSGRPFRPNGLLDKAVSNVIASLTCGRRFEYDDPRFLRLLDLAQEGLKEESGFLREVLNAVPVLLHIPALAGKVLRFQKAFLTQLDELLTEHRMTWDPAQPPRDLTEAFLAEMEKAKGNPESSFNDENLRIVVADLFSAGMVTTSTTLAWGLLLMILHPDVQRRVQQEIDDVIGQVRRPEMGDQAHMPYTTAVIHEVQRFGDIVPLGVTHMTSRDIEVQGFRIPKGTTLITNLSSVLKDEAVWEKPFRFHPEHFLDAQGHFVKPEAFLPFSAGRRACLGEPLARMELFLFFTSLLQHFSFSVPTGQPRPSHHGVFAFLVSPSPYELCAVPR
The data set can be described thus: Inhibition of cytochrome P450 enzymes in human liver microsomes, 2D6. The data set is classed as in vitro ADME. As to the method:
Inhibition of Cytochrome P450 Enzymes: A cocktail of substrates for cytochrome P450 enzymes (1A2: Phenacetin, 10 µM; 2C9: Diclofenac, 5 µM; 2D6: Dextromethorphan, 5 µM; 3A4:
Midazolam, 2 µM) were mixed for cocktail analysis. For P450 2C19, the substrate stock (Mephenytoin, 40 µM )and substrate mix were prepared separately for discrete analysis. The […]
positive control for pan-P450 inhibition (miconazole) was included alongside each test compound […]
A reaction mixture of 100 mM Kpi, pH 7.4, 0.1 mg/mL human liver microsomes (HLM) and Substrate Mix is prepared and aliquoted into a 96-deepwell block. Test compound and positive control (in duplicate) were then added such that the final concentration of test compound ranged from 0.1 – 30 µM. The plate was vortexed briefly and then pre-incubated at 37 °C while shaking for 15 minutes. The reaction was initiated with the addition of NADPH (1 mM final concentration). The incubation continued for 8 min and the reaction quenched by 2x volume of cold acetonitrile containing internal standard (50 nM carbamazepine). The plate was centrifuged for 10 minutes (4000 rcf, 4°C) and the resulting supernatant diluted 1:1 with water for LC/MS/MS analysis. A 12 point standard curve of substrate metabolites over the range of 0.98 nM to 2000 […]
Samples were analyzed via electrospray ionization (ESI) on an AB Sciex API-4000 (Foster City, CA) triple-quadrupole instrument that was coupled with Shimadzu LC-10AD pumps (Columbia, MD) and a Leap Technologies CTC PAL auto-sampler (Carrboro, NC). Analytes were separated by gradient elution using a Fortis C18 3.0 x 50 mm, 3 µm column (Fortis Technologies Ltd, Cheshire, UK) thermostated at 40°C. HPLC mobile phase A was 0.1% formic acid in water (pH unadjusted), mobile phase B was 0.1% formic acid in acetonitrile (pH unadjusted). The gradient […]
90% B for 0.1 min and returned to 10% B in 0.1 min followed by a re-equilibration (0.9 min). The total run time was 2.5 min and the HPLC flow rate was 0.5 mL/min. The source temperature was set at 500°C and mass spectral analyses were performed using multiple reaction monitoring (MRM), with transitions specific for each compound utilizing a Turbo-Ionspray® source in positive ionization mode (5.0 kV spray voltage).
The IC50 values for each compound were obtained for the individual CYP enzymes by quantitating the inhibition of metabolite formation for each probe substrate. A 0 µM compound condition (or control) was set to 100% enzymatic activity and the effect of increasing test compound concentrations on enzymatic activity could then be calculated from the % of control activity.
Curves were fitted using XLfit 5.2.2 (four-parameter logistic model, equation 201) to determine the concentration that produces half-maximal inhibition (IC50).
For orientation: Liver microsomes are vesicles of endoplasmic reticulum, rich in cytochrome P450 enzymes.

A further data set has as its target T3, P-gp (Homo sapiens, UniProt P08183).
T3 construct: expressed in transfected cells; host or cells: MDCK-MDR1
In words: MDCK-MDR1 efflux and permeability. It is filed as in vitro ADME. As to conditions: for Papp / efflux ratio: dog, MDCK-MDR1; for efflux ratio: read-out: P-gp, MDCK-MDR1 ER.

Data set [1] can be described thus: Three-day dose escalation toxicology study in mice. It is filed as in vivo, mouse. Particulars: for AUC at 3 day: in vivo.

We go through five molecules from PMC11843613, “Further Optimization of the mGlu1 PAM VU6024578/BI02982816: Discovery and Characterization of VU6033685” (ACS Chemical Neuroscience, 2025).

“And” between values parts separate entries of the source, which are not always exact repeats. Equal entries are not always repeated. Where two headings read alike, the source gives them in different places.

T1 sequence (Q13255 19-1194): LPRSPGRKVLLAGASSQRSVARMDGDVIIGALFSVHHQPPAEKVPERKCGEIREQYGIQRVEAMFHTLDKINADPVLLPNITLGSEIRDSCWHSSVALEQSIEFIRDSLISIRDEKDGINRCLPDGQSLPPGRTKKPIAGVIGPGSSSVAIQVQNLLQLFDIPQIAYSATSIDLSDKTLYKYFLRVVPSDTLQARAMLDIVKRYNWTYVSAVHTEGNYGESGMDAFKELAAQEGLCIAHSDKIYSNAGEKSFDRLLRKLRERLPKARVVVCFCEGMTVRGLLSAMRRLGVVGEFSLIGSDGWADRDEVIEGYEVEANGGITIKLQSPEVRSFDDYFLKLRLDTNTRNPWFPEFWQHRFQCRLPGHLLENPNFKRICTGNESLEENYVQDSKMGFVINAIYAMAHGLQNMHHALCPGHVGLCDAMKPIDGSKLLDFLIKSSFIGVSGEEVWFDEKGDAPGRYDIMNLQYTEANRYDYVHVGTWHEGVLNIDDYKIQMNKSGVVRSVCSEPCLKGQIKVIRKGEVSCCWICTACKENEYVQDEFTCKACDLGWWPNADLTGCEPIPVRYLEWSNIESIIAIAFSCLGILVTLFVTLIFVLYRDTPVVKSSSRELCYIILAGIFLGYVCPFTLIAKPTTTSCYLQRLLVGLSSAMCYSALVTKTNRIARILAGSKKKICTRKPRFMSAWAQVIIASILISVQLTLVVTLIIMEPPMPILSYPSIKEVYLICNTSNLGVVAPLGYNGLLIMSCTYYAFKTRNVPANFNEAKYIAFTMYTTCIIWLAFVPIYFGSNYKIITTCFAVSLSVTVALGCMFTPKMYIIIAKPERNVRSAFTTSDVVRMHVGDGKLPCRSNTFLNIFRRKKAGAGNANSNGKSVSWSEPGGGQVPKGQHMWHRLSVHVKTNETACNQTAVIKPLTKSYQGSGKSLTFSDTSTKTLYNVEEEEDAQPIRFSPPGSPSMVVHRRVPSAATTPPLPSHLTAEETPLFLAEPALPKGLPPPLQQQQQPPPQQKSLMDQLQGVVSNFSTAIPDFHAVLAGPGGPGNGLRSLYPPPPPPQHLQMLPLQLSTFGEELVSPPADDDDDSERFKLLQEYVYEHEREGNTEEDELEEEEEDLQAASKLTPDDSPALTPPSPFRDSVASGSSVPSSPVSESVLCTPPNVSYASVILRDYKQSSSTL
T3 sequence (P08183 whole entry): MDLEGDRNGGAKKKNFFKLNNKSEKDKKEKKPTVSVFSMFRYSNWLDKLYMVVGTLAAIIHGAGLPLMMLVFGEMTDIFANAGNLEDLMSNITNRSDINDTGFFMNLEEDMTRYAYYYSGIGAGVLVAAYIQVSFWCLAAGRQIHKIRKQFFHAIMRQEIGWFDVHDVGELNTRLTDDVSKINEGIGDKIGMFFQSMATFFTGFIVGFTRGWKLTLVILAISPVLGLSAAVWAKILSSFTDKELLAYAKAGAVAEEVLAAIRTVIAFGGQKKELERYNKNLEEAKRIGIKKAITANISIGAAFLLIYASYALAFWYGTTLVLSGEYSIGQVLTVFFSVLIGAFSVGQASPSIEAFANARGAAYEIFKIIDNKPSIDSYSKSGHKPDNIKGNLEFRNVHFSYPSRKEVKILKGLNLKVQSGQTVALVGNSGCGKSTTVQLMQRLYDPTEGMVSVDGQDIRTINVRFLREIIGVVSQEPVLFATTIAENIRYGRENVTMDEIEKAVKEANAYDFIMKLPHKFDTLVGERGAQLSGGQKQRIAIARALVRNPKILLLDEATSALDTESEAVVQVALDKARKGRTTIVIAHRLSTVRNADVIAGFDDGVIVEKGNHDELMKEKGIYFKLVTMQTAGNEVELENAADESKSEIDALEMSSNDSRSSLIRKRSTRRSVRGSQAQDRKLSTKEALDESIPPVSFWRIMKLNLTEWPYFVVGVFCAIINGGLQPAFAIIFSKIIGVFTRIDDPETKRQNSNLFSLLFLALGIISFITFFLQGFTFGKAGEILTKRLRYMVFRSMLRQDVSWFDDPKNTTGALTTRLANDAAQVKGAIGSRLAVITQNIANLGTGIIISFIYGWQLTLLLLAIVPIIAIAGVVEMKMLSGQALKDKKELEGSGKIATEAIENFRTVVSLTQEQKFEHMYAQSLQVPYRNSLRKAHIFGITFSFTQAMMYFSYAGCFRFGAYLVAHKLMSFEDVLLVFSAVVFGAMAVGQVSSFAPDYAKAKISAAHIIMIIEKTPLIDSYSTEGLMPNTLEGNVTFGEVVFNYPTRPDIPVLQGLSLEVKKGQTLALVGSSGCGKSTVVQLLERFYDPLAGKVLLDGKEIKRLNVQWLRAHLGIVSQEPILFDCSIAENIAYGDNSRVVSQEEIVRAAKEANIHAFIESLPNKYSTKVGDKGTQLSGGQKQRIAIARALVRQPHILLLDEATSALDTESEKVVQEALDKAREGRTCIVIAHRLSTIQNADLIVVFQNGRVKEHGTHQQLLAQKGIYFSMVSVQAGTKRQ

The EC50 is the concentration that produces a half-maximal response. For orientation: IC50 means the midpoint of a concentration-inhibition curve. A higher IC50 goes with weaker potency in that assay. As for `Cn1cc(-c2cc(CNC(=O)c3cc(-c4ccco4)ccc3Cl)n(C)n2)cn1` [compound 4], at human mGlu1, the concentration giving a half-maximal response (EC50) worked out at 28 nM and the “human mGlu1 Glu Max” value is 72%. Besides, the IC50 against CYP450 2D6 was above 30000 nM.

`Cn1nc(-c2ccnn2C)cc1CNC(=O)c1cc(-n2cccn2)ccc1Cl` [compound 5]: at human mGlu1, the EC50 was 527 nM and 551 nM; the “human mGlu1 Glu Max” value was 76%. Besides, the IC50 on CYP450 2D6 is above 30000 nM.

As a reminder, the Papp is a coefficient for how fast a substance crosses the barrier. Low values mean poor permeation, high ones ready permeation. Take `Cc1nc2ccccc2cc1CNC(=O)c1cc(-n2cccn2)ccc1Cl` [compound 6]: at human mGlu1, the EC50 worked out at 32 nM and the “human mGlu1 Glu Max” value was 56%. This molecule returned an IC50 at CYP450 2D6 of 6900 nM. In addition, on P-gp, the Papp amounted to 39 ×10⁻⁶ cm/s and the efflux ratio is 0.5.

Turning to `Cc1nc2c(F)cccc2cc1CNC(=O)c1cc(-n2cccn2)ccc1Cl` [compound 7], on human mGlu1, the EC50 was 17 nM, the “human mGlu1 Glu Max” value turned out to be 56% and the “fold increase in mGlu1 PAM potency over 5” value is recorded as around 31 fold. The molecule further had an IC50 on CYP450 2D6 above 30000 nM.

In the case of `Cc1nc(C2CC2)ccc1CNC(=O)c1cc(-n2cccn2)ccc1Cl` [compound 8], on human mGlu1, the EC50 turned out to be 39 nM, the “human mGlu1 Glu Max” value is on record as 65% and the “fold increase in mGlu1 PAM potency over 5” value was around 14 fold. At CYP450 2D6, this molecule displayed an IC50 above 30000 nM. Further, on P-gp, the “P-gp, MDCK-MDR1 ER” value is on record as 0.93; the Papp came to 42 ×10⁻⁶ cm/s; the efflux ratio was determined as 0.93. The AUC at 3 day in data set [1] (mouse, three-day, 50 mg/kg, read-out: AUCss at 50 mg/kg) is 5.5 µM·h. For the same molecule, in data set [1] (mouse, three-day, 200 mg/kg, read-out: AUCss at 200 mg/kg), the AUC at 3 day was 69.9 µM·h. The AUC at 3 day in data set [1] (mouse, three-day, high-dose group (printed 500 mg/kg), read-out: AUCss in high-dose group) is 208 µM·h. Further, the “maximum tolerated dose (MTD)” value in data set [1] (mouse three-day study) is given as “not reached”. Besides, the “findings at 50 mg/kg” value in data set [1] (mouse, three-day, 50 mg/kg) is recorded as “no test-item-related findings”. In data set [1] (mouse, three-day, 200 mg/kg), the “findings at 200 mg/kg” value was “some of the mice showed signs of weight loss, decreased motor activity, and swaying gait”. In addition, the “findings in high-dose group” value in data set [1] (mouse, three-day, high-dose group (printed 500 mg/kg)) was “several mice displayed weight loss, decreased motor activity, and swaying gait”.
